One compound from publication PMC12741935 (Alzheimer's & Dementia, 2025) can be followed below.

In series [1] the test system is 14 DIV mouse hippocampal neurons. The series can be described thus: oAβ-induced spine loss: drebrin-positive spine density in cultured hippocampal neurons. It is filed as cell-based. Here is the method:
(§1) For in vitro study, all animal procedures were conducted in accordance with the National Institutes of Health Guide for the Care and Use of Laboratory Animals using protocols approved by the institutional animal care and use committee at Stanford University. Timed pregnant C57BL/6 mice (Strain code: 027) were purchased from Charles River Laboratories and delivered on embryonic day 15 (E15), after which E16 embryos were used for primary hippocampal cultures. Primary embryonic mouse hippocampal neuron cultures were plated on poly‐D‐lysine‐coated (10 µg/mL) glass cover slips at 40,000 to 50,000 cells per well in 12‐well plates (Corning Life Sciences). Cells were seeded in plating medium DMEM/F12 supplemented with 10% fetal bovine serum and 1 × penicillin/streptomycin (PS) for 2 hours. Medium was then changed to B‐27 Plus Neuronal Culture System (Invitrogen) supplemented with PS, and 2 mM glutamine.
(§2) Immunofluorescence was performed as described previously.[24] Briefly, cultured hippocampal neurons were fixed in 4% formaldehyde for 20 minutes, permeabilized for 6 minutes in 80% ice‐cold methanol, and incubated with primary antibodies at 4°C overnight. Primary antibodies used were rabbit polyclonal MAP2 antibody for labeling dendrites (1:1000, #8707, Cell Signaling) and mouse monoclonal drebrin antibody for labeling dendritic spines (1:300; Cat#ADI‐NBA‐110, Enzo). Secondary antibodies consisted of donkey antirabbit or antimouse conjugated with either FITC or Cy3 (1:400; Jackson ImmunoResearch Laboratories, Inc.).
The cultured hippocampal neurons were imaged using an oil‐based 63x objective on a Leica Stellaris 5 confocal microscope. The cell nucleus was stained with DAPI and imaged at a wavelength of 405 nm (blue channel), the dendrites stained by MAP2 were imaged at 488 nm wavelength (green channel), and the drebrin‐stained spines were imaged at a wavelength of 561 nm (red channel). Z‐stack images of neurons were acquired at a 1024 × 1024 resolution, a zoom factor of 1.0, and a z‐step size of 0.5 µm. The number of steps for every z‐stack picture of a neuron were determined by the size of the neuron in the z‐plane, to ensure that the entirety of a neuron is captured in the picture. The areas to be imaged were selected systematically, starting from the top‐left region to proceeding to the bottom‐right region of a coverslip. For imaging, preference was given to field of views containing isolated neurons versus clustered neurons.
For quantification of drebrin‐positive spines in vitro, the images were analyzed using Imaris 9.3 software. Each image consisted of one major neuron and the “filaments” option in Imaris was applied to manually trace along the dendrites of every neuron, by placing starting and seed points at the beginning and along the length of the dendrites, respectively. The largest dendrite diameter (i.e., Starting Point) was set at 9.00 µm threshold while the thinnest dendrite diameter (i.e., Seed Point) was set at 1.00 µm threshold. After manually tracing the dendrites, the spines along the dendrites were assessed using the automatic “spine detection” function in Imaris. […] The spine density (number of spines/dendrite length) was then calculated for each neuron. All image acquisition and quantification were performed in a blind manner. For in vitro quantification of dendrite degeneration, Neurolucida (MBF Biosciences) in the manual mode was used to measure the total dendritic length, numbers of dendrites, and dendritic complexity for each neuron.

For series [2] the test system is unchanged. The series can be described thus: oTau-induced spine loss: drebrin-positive spine density in cultured hippocampal neurons. The note with it: oTau 50 nM + inhibitor 24 h vs oTau alone; NVS-PAK1-1 10 nM, NVS-PAK1-C 10 nM, AZ13705339 1 nM, G5555 5 nM. It is filed as cell-based. Here is the method: as §1, §2
The cultured hippocampal neurons were imaged using an oil‐based 63x objective on a Leica Stellaris 5 confocal microscope. The cell nucleus was stained with DAPI and imaged at a wavelength of 405 nm (blue channel), the dendrites stained by MAP2 were imaged at 488 nm wavelength (green channel), and the drebrin‐stained spines were imaged at a wavelength of 561 nm (red channel). […] The number of steps for every z‐stack picture of a neuron were determined by the size of the neuron in the z‐plane, to ensure that the entirety of a neuron is captured in the picture. […]
For quantification of drebrin‐positive spines in vitro, the images were analyzed using Imaris 9.3 software. […] After manually tracing the dendrites, the spines along the dendrites were assessed using the automatic “spine detection” function in Imaris. […] The spine density (number of spines/dendrite length) was then calculated for each neuron. All image acquisition and quantification were performed in a blind manner. For in vitro quantification of dendrite degeneration, Neurolucida (MBF Biosciences) in the manual mode was used to measure the total dendritic length, numbers of dendrites, and dendritic complexity for each neuron.

Series [3] in a line: Adverse event observation in CD-1 PK study. The format is in vivo. The note with it: 10 mg/kg IP, CD-1 mice. The method, then: The dose volume was 10 mL/kg.

As for `CC(C)NC(=O)N1CC[C@H](NC2=Nc3cc(F)ccc3N(CC(F)F)c3ccc(Cl)cc32)C1` [NVS‐PAK1‐1, (S)‐3‐([2‐chloro‐5‐(2,2‐difluoroethyl)‐8‐fluoro‐5H‐dibenzo[b,e][1,4]diazepin‐11‐yl]amino)‐N‐isopropylpyrrolidine‐1‐carboxamide], the EC50 in series [1] (Mus musculus, Hippocampal neuron, 24 h, oAβ 1 µM, 24 h, 14 DIV neurons, read-out: EC50, concentration at which NVS-PAK1-1 reduced oAβ-induced loss of spine density by 50%) was 2 nM. Besides, the “drebrin-stained spine density (spine counts per µm of dendritic length)” value in series [1] (oAβ 1 µM + inhibitor 24 h vs oAβ alone, NVS-PAK1-1 10 nM, NVS-PAK1-C 10 nM, AZ13705339 1 nM, G5555 5 nM) was “significantly higher spine counts”; in series [2], “significantly higher spine counts”. Further, the adverse events result in series [3] is on record as “No adverse events were observed”.
